The record followed here is patent publication US20070009544A1, “Anti-allergic complex molecules” (priority 1999, published 2007).

Values after ≈ are worked out from the molar mass of the structure shown. Numbered stars: 1 amine (or outer) side, 2 acyl side, 3 side chain; on linkers, the order of the positions; unused ones are H or OH. Ends that are not written are not given here. Peptide text beside a SMILES is read from it. Suc = O=C(CCC(=O)[*:2])[*:1]

Series [1] concerns abdominal skin of C.R rats. In words: Rat skin test: intradermal injection of peptide, then intradermal compound 48/80 or vehicle, wheal area. It is filed as in vivo. The settings on record: for Mean wheal size, compound 48/80-induced cutaneous reaction: Fenistil Gel 100 mg t.a., Cromoglycate 20 mg/ml i.d., Peptide 2 10 mg/ml i.d.; for Mean Wheal Area ± STD, Vehicle: vehicle instead of compound 48/80. How it is done: The hair of the abdominal area of C.R rats was carefully removed with an electric clipper and a depilatory cream. In each animal the abdominal area was divided to six equal zones that were marked by pen. Each zone was either subjected to peptide treatment or served as a control. In the first set of experiments, the peptide was topically applied as follows: 36 μl of peptide solution at the indicated concentration (dissolved in 72% DMSO in saline) was applied on desired abdominal area. In the second set of experiments, the peptide was injected intradermally as follows: 20 μl of peptide solution at different concentrations (dissolved in 10% DMSO in saline) was injected intradermally to an indicated abdominal area using a 27-gauge sterile needle.
Skin tests were performed 0.5, 1 or 2 hours following application of the peptide. Skin tests were performed by injecting intradermally 20 μl of the allergen (0.1 mg/ml compound 48/80 dissolved in saline) or saline alone, into the center of each marked area on the abdominal skin using a 27-gauge sterile needle. The allergic response was monitored by outlining with a marker the wheals which developed in response to allergen or saline treatment.
To quantitate the skin test results, the marker signs were transferred onto paper with scotch tape. The areas of the wheals were outlined and calculated by a computerized planimeter (Hewlett-Packard), as previously described (Sussman et al., 1982).
Tables 10-16 presents the mean areas of the wheals, which developed in response to intradermal injection of each of the tested peptides, followed by either compound 48/80 or DDW injection applied after 0.5 or 1 hour. Two doses were tested for each peptide-20 and 200 μg (injection of 20 μl from a stock solution of 1 mg/ml or 10 mg/m respectively).
Skin tests on rats using compound 48/80 as the allergen assessed the ability of the peptides of the present invention to block allergic cutaneous reactions. The abdominal skin of the rats was subjected to peptide (indicated concentrations are listed in Tables 17A-17B below) or vehicle treatment (intradermal injection); the allergic response was induced by intradermal injection of compound 48/80 at various times; and the allergic response was quantified by calculating the area of the resultant allergic wheals.

Another series concerns mice. In words: IgE-independent mouse conjunctivitis induced by compound 48/80, clinical score. It is filed as in vivo. Also on record: scale not given here. The settings on record: for Average Score, Chemosis: drug 24, 21, 18 hrs and 30 min before compound 48/80, Cromoglycate 2%, Dexamethazone 0.1%, Peptide 2 2%, no treatment 2.0; for Average Score, Erythema / Average Score, Tearing / Average Score, Lid edema / Average Score, Total score: drug before compound 48/80; for Average Score, Erythema: no treatment 0.8; for Average Score, Tearing: no treatment 2.3; for Average Score, Lid edema: no treatment 2.5; for Average Score, Total score: no treatment 7.6. How it is done:
A murine model was chosen as an in vivo model of IgE-independent human conjunctivitis, induced by a basic secretagogue.
Six groups of mice were topically treated as described in Table 19. The first application was installed 4 times (24 hours, 21 hours, 18 hours and 30 minutes) prior to the second application.
Clinical evaluation of allergic conjunctivitis was conducted in a blind fashion by determining the extent and intensity of lid edema, chemosis, erythema and tearing.

Series [2] concerns purified rat peritoneal mast cells. In words: Histamine secretion from intact mast cells incubated with peptide alone (secretagogue side effect). The settings on record: for Secretagogue (histamine secretion following incubation of mast cell with different concentrations of each peptide): Table 9, no allergen; for histamine secretion from mast cells on incubation with increasing concentrations of peptide alone: no additional allergen.
Method: Mast cells from the peritoneal cavity of C.R rats were isolated in Tyrode buffer (137 mM NaCl, 2.7 mM KC1, 1 mM MgCl2, 0.4 mM NaH2PO4, 20 mM Hepes, 1.0 mM CaCl2, 5.6 mM glucose, 1 mg/ml BSA, pH 7.2) and purified over a Ficoll gradient. A suspension of washed peritoneal cells was placed over a cushion of 30% Ficoll 400 (Pharmacia Biotech.) in buffered Saline containing 0.1% BSA; and centrifuged at 150O×g for 15 min. The purity of mast cells recovered from the bottom of the tube was >90%, as assessed by toluidine blue staining.
Purified mast cells (duplicated of 10^5 cells/0.5 ml) were incubated in Tyrode buffer with buffer or with desired concentrations of the indicated peptide for 2 h. at. 37° C. Histamine secretion was subsequently stimulated by the indicated concentration of compound 48/80 (Sigma) dissolved in Tyrode buffer. Incubation with compound 48/80 was carried out for 20 mm.in at 37° C. The reaction was terminated by placing the tubes on ice. The cells were sedimented by centrifugation at 150×g for 5 mm.in and the supernatants were collected. The amount of histamine release was determined as previously described (Aridor et al., 1990). Briefly, cell pellets were lysed using 0.1N NaOH and the volume of each sample was adjusted to 0.5 ml by H2O. Histamine content was assayed using the o-phtalaldehyde (OPT) fluorimetric method (Shore et al., 1959). Aliquots of 0.4 ml from the supernatants and cell lysates were incubated with 1.6 ml H20, 0.4 ml 1N NaOH and 0.1 ml of 10 mg/l ml OPT in methanol, for 4 min at room temperature. The reaction was terminated by the addition of 0.2 ml 3N HCl. Samples were centrifuged at 150×g for 5 min. and 0.2 ml samples were transferred to a 96 well plate. The histamine spectrofluorometric assay was run in microplates using a microplates reader (FL-600, Biotek instruments Winooski, Vt., USA). Samples were excited by light at 340 nm and read at 440 nm. Histamine release was calculated as the percentage of total histamine content (supernatant/pellet+supernatant) in each sample. Each data point represents the average of duplicate measurements. The spontaneously released histamine was subtracted.

For series [3] the test system is unchanged. It is filed as cell-based. How it is done: 37° C. […] Each data point represents the average of duplicate measurements. The spontaneously released histamine was subtracted.
First, the effect of compound 48/80 on exocytosis from intact mast cells was determined. […] Histamine release was determined and is presented as the net secretion that is % of the total cellular histamine following subtraction of the spontaneously released histamine. Half-maximal release was obtained at 0.1 μg/ml while maximal release was obtained at 1-10 μg/ml. Accordingly, in order to analyze the potential of each peptide to block histamine secretion, histamine secretion was induced with 5 μg/ml compound 48/80, a concentration that induces a maximal histamine release, while the cells were incubated in the presence of increasing concentrations of each peptide.
In order to investigate the ability of these peptides to block allergen-induced exocytosis, the peptides were examined for their ability to block compound 48/80 induced histamine secretion from intact mast cells in vitro. Mast cells were incubated with different concentrations of each peptide, followed by induction of histamine secretion by compound 48/80.

Setting [4] is: intradermal peptide 1 mg/ml, 0.5 hour before.
The mark [5] stands for this setting: intradermal peptide 1 mg/ml, 1 hour before.
Setting [6] is: intradermal peptide 10 mg/ml, 0.5 hour before.
[7] abbreviates: intradermal peptide 10 mg/ml, 1 hour before.

Regarding `O=C(O)c1cc(=O)c2c(OCC(O)COc3cccc4oc(C(=O)O)cc(=O)c34)cccc2o1` [Cromoglycate], the “Mean wheal size, compound 48/80-induced cutaneous reaction” value in series [1] (0.5 hour incubation, Ceterizine 0.01 mg/ml i.d., no treatment 115.5 ± 30.4) stood at 76.2 ± 17.5 mm^2. The “Mean wheal size, compound 48/80-induced cutaneous reaction” value in series [1] (1 hour incubation, no treatment 123.3 ± 33.9) is 91.5 ± 12.6 mm^2. Also, in the series on mice, the “Average Score, Chemosis” value is 0.5; the “Average Score, Erythema” value was found to be 0.5; the “Average Score, Tearing” value is reported as 1.9; the “Average Score, Lid edema” value was 1.1. Besides, in the series with mice, the “Average Score, Total score” value worked out at 4.0.

Consider `C[C@@H]1C[C@H]2[C@@H]3CCC4=CC(=O)C=C[C@]4(C)[C@@]3(F)[C@@H](O)C[C@]2(C)[C@@]1(O)C(=O)CO` [Dexamethazone], for which, in the series with mice, the “Average Score, Chemosis” value came out at 0; the “Average Score, Erythema” value was found to be 0.6; the “Average Score, Tearing” value is 1.0; the “Average Score, Lid edema” value turned out to be 0. Besides, the “Average Score, Total score” value in the series on mice turned out to be 1.6.

Consider `CC(C)C[C@H](NC(=O)CNC(=O)[C@@H](NC(=O)[C@H](CCC(=O)O)NC(=O)[C@H](CCCCN)NC(=O)[C@H](CC(C)C)NC(=O)[C@H](CC(N)=O)NC(=O)[C@H](CC(N)=O)NC(=O)[C@H](CCCCN)NC(=O)[C@@H]1CCCN1C(=O)[C@H](C)NC(=O)[C@H](CC(C)C)NC(=O)[C@H](CC(C)C)NC(=O)[C@H](C)NC(=O)[C@H](CC(C)C)NC(=O)[C@H](CC(C)C)NC(=O)[C@@H](NC(=O)[C@H](C)NC(=O)[C@@H]1CCCN1C(=O)[C@H](CC(C)C)NC(=O)[C@H](CC(C)C)NC(=O)[C@H](C)NC(=O)[C@@H](NC(=O)[C@H](C)NC(=O)[C@H](C)NC(=O)CCC(=O)O)C(C)C)C(C)C)C(C)C)C(=O)N[C@@H](Cc1ccc(O)cc1)C(=O)O` [WALL016] (Suc-AAVALLPAVLLALLAPKNNLKEVGLY-OH; C-terminus assumed), for which the “Secretagogue (histamine secretion following incubation of mast cell with different concentrations of each peptide)” value in series [2] (peptide alone) is given as “−”. Moreover, in series [2], the “histamine secretion from mast cells on incubation with increasing concentrations of peptide alone” value is “did not result in histamine secretion”. Also, the “basal level of histamine secretion compared to control cells” value in series [2] (peptide alone, increasing concentrations) is given as “inhibition of the basal histamine secretion”. Further, the “block of compound 48/80 induced allergic reaction in vivo, rat skin” value in series [1] (intradermal peptide) was “effectively block the allergic response in vivo”. The “Mean Wheal Area ± STD, Compound 48/80” value in series [1] (intradermal peptide 1 mg/ml, 0.5 hour before allergic induction) was 104.2 ± 21.6 (n = 5) mm^2; in series [1] (intradermal peptide 1 mg/ml, 1 hour before allergic induction), 96.3 ± 15.6 (n = 6) mm^2; in series [1] (intradermal peptide 10 mg/ml, 0.5 hour before allergic induction), 81.2 ± 7.9 (n = 5) mm^2; in series [1] (intradermal peptide 10 mg/ml, 1 hour before allergic induction), 82.1 ± 27.2 (n = 6) mm^2. Also, the “Mean Wheal Area ± STD, Vehicle” value in series [1] (setting [4]) is on record as 66.4 ± 12.5 (n = 5) mm^2; in series [1] (setting [5]), 62.8 ± 14.6 (n = 6) mm^2; in series [1] (setting [6]), 72.6 ± 16.2 (n = 5) mm^2; in series [1] (setting [7]), 69.3 ± 17.0 (n = 6) mm^2. Moreover, the “reduction of compound 48/80 induced allergic reaction” value in series [1] (intradermal peptide 0.5 or 1 hour before allergic induction) was “significant inhibition”. Further, in series [3], the “IC50, compound 48/80 induced histamine secretion” value stood at 295 µg/mL (≈ 106 µM). The “maximal inhibition of compound 48/80 induced histamine secretion” value in series [3] (600 μg/ml peptide, compound 48/80 concentration not given) is listed as 79.6%. Further, the “Inhibitor (extent of inhibition of histamine secretion from mast cells)” value in series [3] (Table 9, incubation with different concentrations of each peptide, then induction of the allergic reaction) is “++ (++ Moderate inhibitor (50%-70% inhibition))”.

Consider AAVALLPAVLLALLAPKNNLKEVGLY [WALL007], for which the “Secretagogue (histamine secretion following incubation of mast cell with different concentrations of each peptide)” value in series [2] (peptide alone) was “−”. Besides, the “histamine secretion from mast cells on incubation with increasing concentrations of peptide alone” value in series [2] is listed as “did not result in histamine secretion”. Also, the “Mean Wheal Area ± STD, Vehicle” value is recorded as 76.5 ± 14.1 (n = 12) mm^2 in series [1] (setting [4]), 62.4 ± 11.1 (n = 15) mm^2 in series [1] (setting [5]), 74.5 ± 26.4 (n = 12) mm^2 in series [1] (setting [6]) and 65.9 ± 10.0 (n = 11) mm^2 in series [1] (setting [7]). The “IC50, compound 48/80 induced histamine secretion” value in series [3] was determined as 230 µg/mL.
